Results taken from patent publication US20030044413A1, “Methods of limiting apoptosis of cells” (Regents of the University of Minnesota, priority 1998, published 2003).
Where two headings read alike, the source gives them in different places.

Legend:
Bax = experiment: Western blot, liver of bile acid fed rats: Bax; type: in vivo, rat; settings: DCA feeding
Experimental: Animals and Diets. Male 160-175 g Sprague-Dawley rats (Sprague-Dawley, Indianapolis, Ind.), were maintained on a 12 h light-dark cycle and fed standard laboratory chow ad libitum for 3 days. The animals were then transferred to metabolic cages and fed diets of standard laboratory chow supplemented with either no bile acid or 0.4% (wt/wt) DCA, 0.4% UDCA, or a combination of DCA+UDCA (Bio-Serv, Frenchtown, N.J.). On day 10, the animals were sacrificed by exsanguination under ether anesthesia between 9 a.m. and 11 a.m. The livers were removed, rinsed in normal saline, and flash-frozen in liquid nitrogen until western blot analyses of apoptosis-related proteins were performed. All animals received humane care in compliance with the Guide for the Care and Use of Laboratory Animals, prepared by the National Academy of Sciences (NIH Publication No. 86-23, revised 1985).
Western Blot Analysis. Cytoplasmic proteins were isolated from rat liver tissue as described previously (Trembley et al., Cell Growth & Differ., 7, 903-916 (1996)). […] Cytoplasmic and mitochondrial protein concentrations were determined using the Bio-Rad protein assay (Bio-Rad Laboratories). […]
Densitometry. […] Quantitation of the autoradiograms was performed using the NIH Image 1.4 densitometric analysis program.

Bad = experiment: Western blot, liver of bile acid fed rats: Bad; type: in vivo, rat; settings: bile acid feeding
Experimental: Video densitometry was accomplished using a Macintosh II (Apple Computer, Cupertino, Calif.) coupled to a Data Translation DT2255 video digitizer (Data Translation, Marlboro, Mass.) and a JVC GX-N8 video camera (JVC Corporation of America, Elmwood Park, N.J.) as described previously (Kren et al., J. Cell Biol., 123, 707-718 (1993)). Quantitation of the autoradiograms was performed using the NIH Image 1.4 densitometric analysis program.

cytochrome c = experiment: Cytochrome c content of cytosol and mitochondria of rat hepatocytes; type: cell-based; settings: Hepatocyte, hepatocytes with DCA, TGF-β1 or okadaic acid, 100 μM UDCA
Experimental: Isolation of cytosol and mitochondrial fractions and determination of cytochrome c and Bax content. Freshly isolated rat hepatocytes were cultured for 3 hours as described above and then incubated with William's medium supplemented with either 50 μM of DCA for 4 h, 1 nM TGF-β1 for 24 h and […] okadaic acid for 16 h, in the presence or absence of 100 μM UDCA, or no addition (control). Time-course experiments were also performed. Cells (1.0×10^7/ml) were harvested by centrifugation at 600×g for 5 min at 4° C. The cell pellets were washed once in ice-cold PBS and resuspended with 3 volumes of isolation buffer containing 20 mM Hepes-KOH, pH 7.5, 10 mM KCl, 1.5 mM MgCl2, 1 mM sodium EDTA, 1 mM sodium EGTA, 1 mM dithiothreitol (DTT), suplemmented with the COMPLETE protease inhibitor cocktail (Boehringer Mannheim Biochemicals, Inc., Indianapolis, Ind.) in 250 mM sucrose. After chiling on ice for 15 min, the cells were disrupted by 40 stokes of a glass homogeneizer and the homogenates were centrifuged twice at 2,500×g for 10 min at 4° C. to remove unbroken cells and nuclei. The mitochondria were pelleted by centrifugation at 12,000×g for 30 min at 4° C., resuspended in isolation buffer containing 250 mM sucrose and frozen at −80° C. […]

[1] = Nuclear bile acid concentration in livers of fed rats; type: in vivo, rat

SMILES	increase in mitochondrial-associated Bax (Bax) [fold]	cytoplasmic Bad expression, increase (Bad)	inhibition at 100 µM (cytochrome c; read-out: inhibition of cytochrome c depletion from the mitochondria) [%]	inhibition at 100 µM (cytochrome c; read-out: inhibition of cytochrome c release to the cytosol) [%]	share of the total nuclear bile acid concentration ([1]; UDCA feeding) [%]	concentration in nuclei relative to cytoplasmic levels ([1]; livers from control and DCA fed rats) [fold]
C[C@H](CCC(=O)O)[C@H]1CC[C@H]2[C@@H]3CC[C@@H]4C[C@H](O)CC[C@]4(C)[C@H]3C[C@H](O)[C@]12C [DCA, deoxycholic acid]	4.5	approximately 2 fold	–	–	–	–
C[C@H](CCC(=O)O)[C@H]1CC[C@H]2[C@@H]3[C@@H](O)C[C@@H]4C[C@H](O)CC[C@]4(C)[C@H]3CC[C@]12C [UDCA, ursodeoxycholic acid]	–	–	70	60	91.4	> 20
